{
  "source": "paper PMC9794608",
  "about": "(Frontiers in Veterinary Science, 2022)",
  "experiment": "Plasma pharmacokinetics after single and repeat oral dose, LC-MS/MS, non-compartmental analysis",
  "type": "in vivo, Beagle dogs",
  "conditions": "for Sapanisertib accumulation with repeat dosing: 0.1 mg/kg p.o. QOD; for Cmax: read-out: CMAX (sapanisertib in plasma)",
  "method": "Laboratory Beagle dogs (Charles River Labs, Mattawan, MI) served as surrogates in testing compounds proposed for application in canine clinical cancer care. The animals were at least six months old and weighed 6.4–8.8 kg at the initiation of study. They had routine veterinary care and had not been used in any previous studies. The study was conducted in AAALAC-accredited animal facilities [Charles River Laboratories, Inc., Mattawan, MI; NIH Office of Laboratory Animal Welfare Assurance approval (https://olaw.nih.gov/assured/app/index.html)], under review, monitoring, and approval of the facility's Institutional Animal Care and Use Committee according to U.S. Public Health Service national guidelines and regulations for the care and use of laboratory animals. The study was not designed to incorporate Good Laboratory Practices (GLP) regulatory criteria. Animals on study were monitored daily or more frequently and body weights were recorded, while periodic specimens were obtained for laboratory analyses. Clinical pathology analyses were included for hematology, serum chemistry, coagulation, urinalysis, and chemical bioanalysis was accomplished for pharmacokinetics (PK) (Table 1, repeat dose study) (Charles River Laboratories, Mattawan, MI).\nSix male and six female beagle dogs were enrolled in a parallel, three-arm, fixed, repeat oral-dose study. […] In Group 2, two male (23001, 23002) and two female (23501, 23502) dogs were given sapanisertib alone (0.1 mg/kg) every other day (p.o., QOD). […] All dogs were dosed on study day 1 to obtain single dose PK samples, and then dosed serially days 4–20. Dogs were fasted overnight prior to dosing and fed ad libitum 2 h (hrs) following dose administration.\nPlasma samples for PK were collected at pre-dose (-7 days), then beginning day 1 following the initial dose of each study group at 1, 2, 4, 8, 24, 48, and 72 h. On day 6, plasma samples were collected pre-dose, then 1, 2, 4, 8, and 24 h post-dose. On days 10 and 15, a 2-h post-dose sample was collected. On day 20, plasma samples were drawn at pre-dose and 1, 2, 4, 8, 24, 48, and 72 h post-dose. Treatment schedule and clinical pathology specimen sampling intervals are outlined in Table 1.\nEach 50 μL aliquot of known concentration standards, quality control sample, or study sample was mixed with 200 μL of working internal standard solution (10 ng/mL in acetonitrile). The samples were vortexed and centrifuged. A 150 μL aliquot of the resulting supernatant was transferred to a clean 96-well plate, evaporated, and reconstituted with 100 μL of water/acetonitrile (40/60, v/v). An aliquot was injected onto an LC-MS/MS XBridge BEH C18 liquid chromatography system (Waters Associates, Framingham, MA) having 50 x 2.1 mm (2.5 μm particle size) column with an isocratic flow consisting of water/formic acid (100/0.1, v/v) and acetonitrile/formic acid (100/0.1, v/v) at a flow rate of 0.3000 mL/min for analysis. The analyte and internal standard were detected using an API 6500+ triple quadrupole LC-MS/MS system (AB Sciex, LLC, Framingham, MA) equipped with an ESI (TurboIonSpray®) ionization source operated in the positive ion mode.\nA non-compartmental approach to PK analysis was employed using Phoenix WinNonlin v8.3 (Certara Corp, Cary, NC) that was validated per FDA 21CFR Part 11 regulations. The maximum plasma concentration (CMAX) and the time of maximum plasma concentration (TMAX) were recorded as observed values. […] AUCINF (the AUC from time zero to infinity) was calculated by extrapolation by dividing CLAST (the last measurable drug concentration) by the rate constant of the terminal phase, λZ. This constant was determined from the slope of the terminal phase of the concentration-time curve using uniformly-weighted least-squares as the estimation procedure and acceptance criteria of (i) adjusted r^2 > 0.8, (ii) includes > 3 time points in the terminal phase occurring after the TMAX. […]",
  "key": {"[1]": {"conditions": "First dose (Day 1), sapanisertib 0.1 mg/kg p.o., mean (%CV), n = 4"}, "[2]": {"conditions": "canine sapanisertib only group 0.1 mg/kg versus human cancer patients receiving 4 mg oral sapanisertib"}},
  "note": "Like-named read-outs stand apart in the source and are kept apart here.",
  "data": [
    {"molecule": "CC(C)n1nc(-c2ccc3oc(N)nc3c2)c2c(N)ncnc21", "note": "[Sapanisertib]", "values": [
      {"measurement": "Sapanisertib accumulation with repeat dosing", "setting": "day 1 to day 20", "result": "did not display accumulation"},
      {"measurement": "Sapanisertib accumulation with repeat dosing", "setting": "day 1 to day 20, listed as sapanisertib", "result": "not observed to significantly accumulate"},
      {"measurement": "AUCINF (sapanisertib in plasma)", "setting": "[1]", "result": "247.5 (41%) hr^*ng/mL"},
      {"measurement": "V/F (sapanisertib)", "setting": "[1]", "result": "3.85 (34%) L/kg"},
      {"measurement": "V/F (sapanisertib)", "setting": "Steady-state (Day 20), sapanisertib 0.1 mg/kg p.o. QOD, mean (%CV), n = 4", "result": "3.97 (33%) L/kg"},
      {"measurement": "Sapanisertib plasma level at day 15", "setting": "approximately 24 h from the previous dose, Groups 2,3", "result": "minimal detectable"},
      {"measurement": "half-life", "setting": "both sexes, beagle, dog, plasma, po, 0.1 mg/kg, 0.1 mg/kg p.o., day 1 to day 20, read-out: Sapanisertib half-life (range)", "result": "4.8 to 6.8", "unit": "h"},
      {"measurement": "AUC(0-inf)", "setting": "both sexes, beagle, dog, plasma, po, 0.1 mg/kg, First dose (Day 1), sapanisertib 0.1 mg/kg p.o., mean (%CV), n = 4, read-out: AUCINF (sapanisertib in plasma)", "result": 248, "unit": "ng·h/mL"},
      {"measurement": "half-life", "setting": "both sexes, beagle, dog, plasma, po, 0.1 mg/kg, First dose (Day 1), sapanisertib 0.1 mg/kg p.o., mean (%CV), n = 4, read-out: T1/2 (sapanisertib in plasma) (converted)", "result": 5.94, "unit": "h"},
      {"measurement": "Tmax", "setting": "both sexes, beagle, dog, plasma, po, 0.1 mg/kg, First dose (Day 1), sapanisertib 0.1 mg/kg p.o., median (range), n = 4, read-out: TMAX (sapanisertib in plasma)", "result": 2, "unit": "h"},
      {"measurement": "Cmax", "setting": "both sexes, beagle, dog, plasma, po, 0.1 mg/kg, Steady-state (Day 6), sapanisertib 0.1 mg/kg p.o. QOD, mean (%CV), n = 4", "result": 28.1, "unit": "ng/mL"},
      {"measurement": "Cmax", "setting": "both sexes, beagle, dog, plasma, po, 0.1 mg/kg, Steady-state (Day 10), sapanisertib 0.1 mg/kg p.o. QOD, mean (%CV), n = 4", "result": 23.6, "unit": "ng/mL"},
      {"measurement": "AUC", "setting": "both sexes, beagle, dog, plasma, po, 0.1 mg/kg, Steady-state (Day 20), sapanisertib 0.1 mg/kg p.o. QOD, mean (%CV), n = 4, read-out: AUCTAU (sapanisertib in plasma)", "result": 250, "unit": "ng·h/mL"},
      {"measurement": "Cmax", "setting": "both sexes, beagle, dog, plasma, po, 0.1 mg/kg, Steady-state (Day 20), sapanisertib 0.1 mg/kg p.o. QOD, mean (%CV), n = 4", "result": 27.4, "unit": "ng/mL"},
      {"measurement": "half-life", "setting": "both sexes, beagle, dog, plasma, po, 0.1 mg/kg, Steady-state (Day 20), sapanisertib 0.1 mg/kg p.o. QOD, mean (%CV), n = 4, read-out: T1/2 (sapanisertib in plasma) (converted)", "result": 6.28, "unit": "h"},
      {"measurement": "Tmax", "setting": "both sexes, beagle, dog, plasma, po, 0.1 mg/kg, Steady-state (Day 20), sapanisertib 0.1 mg/kg p.o. QOD, median (range), n = 4, read-out: TMAX (sapanisertib in plasma)", "result": 2, "unit": "h"},
      {"measurement": "Tmax", "setting": "both sexes, beagle, dog, plasma, po, 0.1 mg/kg, dogs, 0.1 mg/kg p.o., read-out: Sapanisertib Tmax on average", "result": 2, "unit": "h"},
      {"measurement": "CL/F", "setting": "both sexes, beagle, dog, plasma, po, First dose (Day 1), sapanisertib 0.1 mg/kg p.o., mean (%CV), n = 4", "result": 7.83, "unit": "mL/min/kg"},
      {"measurement": "Cmax", "setting": "both, beagle, dog, plasma, po, 0.1 mg/kg, First dose (Day 1), sapanisertib 0.1 mg/kg p.o., alone or with trametinib […] (see label), arithmetic mean (%CV), n = 4", "result": 26.3, "unit": "ng/mL"},
      {"measurement": "Mean animal to human exposure ratio, AUCINF", "setting": "[2]", "result": 1.31},
      {"measurement": "Mean animal to human exposure ratio, CMAX", "setting": "[2]", "result": 1.11},
      {"measurement": "Mean animal to human exposure ratio, T1/2", "setting": "[2]", "result": 0.91},
      {"measurement": "Sapanisertib absorption time (range)", "setting": "initial and repeat dose, 0.1 mg/kg p.o.", "result": "1 to 4", "unit": "h"}
    ]}
  ]
}
